Data from paper PMC9942793 (Proceedings of the National Academy of Sciences of the …, 2023).

Molecular target: T1, SLO3 (Homo sapiens, UniProt A8MYU2)
T1 sequence (A8MYU2 1-1149): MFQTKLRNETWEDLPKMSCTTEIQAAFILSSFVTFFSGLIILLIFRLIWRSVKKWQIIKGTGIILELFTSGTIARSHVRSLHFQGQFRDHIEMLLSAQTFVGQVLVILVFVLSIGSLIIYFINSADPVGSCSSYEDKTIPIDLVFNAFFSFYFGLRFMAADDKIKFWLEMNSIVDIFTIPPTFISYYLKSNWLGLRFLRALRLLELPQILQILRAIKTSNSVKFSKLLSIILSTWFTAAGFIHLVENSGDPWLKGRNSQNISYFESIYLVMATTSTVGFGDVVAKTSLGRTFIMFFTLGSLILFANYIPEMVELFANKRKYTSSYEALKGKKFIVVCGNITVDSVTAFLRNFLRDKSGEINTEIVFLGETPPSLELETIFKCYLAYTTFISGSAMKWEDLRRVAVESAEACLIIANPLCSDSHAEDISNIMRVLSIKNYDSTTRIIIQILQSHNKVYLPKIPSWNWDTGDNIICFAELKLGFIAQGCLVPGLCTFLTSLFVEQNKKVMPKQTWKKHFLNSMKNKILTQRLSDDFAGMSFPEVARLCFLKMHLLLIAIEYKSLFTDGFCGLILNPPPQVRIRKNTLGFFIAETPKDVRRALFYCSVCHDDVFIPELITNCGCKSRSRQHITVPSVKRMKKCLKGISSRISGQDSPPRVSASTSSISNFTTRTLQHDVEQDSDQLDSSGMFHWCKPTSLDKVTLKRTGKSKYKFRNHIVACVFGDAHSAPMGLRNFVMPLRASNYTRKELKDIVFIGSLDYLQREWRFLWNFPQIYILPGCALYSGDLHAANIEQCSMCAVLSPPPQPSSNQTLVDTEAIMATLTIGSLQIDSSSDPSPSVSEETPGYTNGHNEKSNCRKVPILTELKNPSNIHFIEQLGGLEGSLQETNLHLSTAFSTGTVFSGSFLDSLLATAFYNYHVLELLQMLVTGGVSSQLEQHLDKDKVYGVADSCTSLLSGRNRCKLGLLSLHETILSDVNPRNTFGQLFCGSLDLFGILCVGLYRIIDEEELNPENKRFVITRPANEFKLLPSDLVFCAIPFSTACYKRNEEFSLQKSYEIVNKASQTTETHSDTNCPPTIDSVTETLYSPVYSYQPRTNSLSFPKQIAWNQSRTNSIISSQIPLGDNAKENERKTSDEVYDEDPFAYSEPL
T1 sequence (Q8N7C0 24-313 partner): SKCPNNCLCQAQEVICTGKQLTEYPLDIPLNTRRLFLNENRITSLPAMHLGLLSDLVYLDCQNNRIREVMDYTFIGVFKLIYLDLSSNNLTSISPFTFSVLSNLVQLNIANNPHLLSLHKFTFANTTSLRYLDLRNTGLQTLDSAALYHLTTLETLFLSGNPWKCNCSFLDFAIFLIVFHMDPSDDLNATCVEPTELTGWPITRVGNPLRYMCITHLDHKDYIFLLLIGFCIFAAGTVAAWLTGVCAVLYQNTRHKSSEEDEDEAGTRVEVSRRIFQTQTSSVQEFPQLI
Test: Tl+ flux assay
Format: cell-based

How did the “Tl+ flux assay (activation; 100 μM used in the screen)” value turn out when `FC(F)(F)c1cc(NC(=S)Nc2ccc(Br)cc2-c2nnn[nH]2)cc(C(F)(F)F)c1` [NS11021] was run?
Its value is “found that the SLO1 activator NS11021 also activates SLO3 at high concentrations (Fig. 1B)”.
